Data on three molecules can be found in patent US20250177292A1, “METHOD FOR TREATMENT OF PARKINSON'S DISEASE” (NeuroDerm, Ltd., priority 2013, published 2025).

Data set [1] in a line: Stability of carbidopa formulations with and without levodopa (Table H). Format: physicochemical. The settings on record: in the presence of LD. From the text: The effect of levodopa on the stability of carbidopa was investigated. Table H indicates results.
It appears that LD may protect CD from degradation.

The nature of data set [2]: Effect of carbidopa on stability of levodopa formulations in vitro (Tables F, G, FIG. 1A). Format: physicochemical. The procedure:
6% by weight levodopa and arginine solution with various concentrations (2, 1.5, 1, 0.5%) of carbidopa or no carbidopa were tested for physical stability in vitro. […] 1B. 7% by weight levodopa and arginine solution, with or without 2% carbidopa by weight, continuously administered in to the subcutaneous tissue of a 5×5 cm fresh, full-thickness pig skin.
The effect of carbidopa on levodopa formulations was investigated. Levodopa (LD) formulations were prepared with 0, 0.5, 1, 1.5 and 2% by weight carbidopa (CD) and a constant concentration of arginine.
In an additional experiment, LD formulations were prepared with 0, 0.5, 1 and 2% CD and respective concentrations of arginine.

The test system of a further data set is pigs. The settings on record: pig, in vivo, sc.
The subject of the next data set is pig skin. Nature of the data set: Continuous administration into full-thickness pig skin ex vivo (FIG. 1B). The settings on record: 7% LD/arginine solution with 2% CD, 0.08 ml/h×18 h, 37° C. The procedure: FIGS. 1A-1B show the effect of carbidopa on the stability of levodopa in vitro and ex vivo: 1A. 6% by weight levodopa and arginine solution with various concentrations (2, 1.5, 1, 0.5%) of carbidopa or no carbidopa were tested for physical stability in vitro. […] 1B. 7% by weight levodopa and arginine solution, with or without 2% carbidopa by weight, continuously administered in to the subcutaneous tissue of a 5×5 cm fresh, full-thickness pig skin.
A 7% LD/arginine solution, with or without 2% CD, was continuously administered at 0.08 ml/h×18 h, 37° C. into a 5×5 cm fresh, full-thickness pig skin.

The conditions of data set [3]: cited from earlier work.
For data set [4] the following is noted: cited from earlier work. This is another data set of the same source.
A short description of data set [5]: Plasma LD, CD and 3-OMD during continuous SC LD/CD with oral entacapone in human volunteers (FIG. 6). Format: in vivo, human. Here is the method:
A single center, double-blind, randomized, placebo-controlled, study was conducted with six healthy Caucasian males volunteers, aged 18-40 years old. LD (6%)/CD (1.5%) was administered at a rate of […], corresponding to 360 mg of LD and 90 mg of CD per 24 hours. […] Plasma LD, CD and 3-OMD concentrations were quantified at pre-determined time points.

The nature of data set [6]: Titration with acetic or lactic acid: pH and physical stability (Table D). Format: physicochemical.
From the text: Formulations containing 6/1.5% and 5.4/1.5% LD/CD and varying L-Arg concentrations were titrated with acetic acid (100%) or lactic acid (85%), to study the effect of pH and L-Arg concentration on the physical stability of the solutions (Table D).

Method for pigs: The effect of carbidopa on levodopa local toxicity was investigated in pigs: solutions containing 6% LD and 0, 0.5 or 1% CD with the respective amount of arginine (13.5, 14.2 or 14.8%, respectively) were continuously administered SC to pigs at 0.16 ml/h×24 h. Each formulation was administered to 2 pigs. Skin samples were collected 8±1 days thereafter.

With `C[C@@](Cc1ccc(O)c(O)c1)(NN)C(=O)O` [CD, carbidopa], the “Sensitivity of CD to oxidation and degradation” value in data set [1] was “more stable in the presence of LD”. Moreover, in data set [2] (Table F), the “Effect on the chemical stability of levodopa” value is recorded as “does not have a significant effect”. Besides, the “Dark yellow color formation” value in data set [2] (in the absence of air (N2 in the head space), 0.5% carbidopa) is given as “sufficient to inhibit this color formation”; in data set [2] (in the presence of air, 6% levodopa and arginine solution with 0.5-2% carbidopa), “prevented dark yellow color formation”. Moreover, in the data set on pigs, the “Local levodopa dependent subcutaneous toxicity” value was “reduces the severity and extent”. In addition, the entries for the “Oxidation of LD ex vivo (black by-products)” value with pig skin and in the data set on pig skin (listed as carbidopa) were “lack of black by-products formation” and “inhibition of oxidation”, respectively.

As for `CCN(CC)C(=O)/C(C#N)=C/c1cc(O)c(O)c([N+](=O)[O-])c1` [E, entacapone], the “Increase in the level of levodopa” value in data set [3] (according to Nyholm et al.) is recorded as “up to 33%”. In addition, the “Reduction of the dose of levodopa and carbidopa maintaining the desired blood level of levodopa” value in data set [3] (oral 200 mg entacapone, intraintestinal infusion of levodopa and carbidopa) is listed as 20%. Further, the “Highest increase in the total amount of levodopa” value in data set [4] (after 400 mg dose of entacapone, oral levodopa and carbidopa) was “about 33%”. For the same molecule, the “Total amount of carbidopa in blood” value in data set [4] (high doses of entacapone (400 mg and 800 mg)) is given as “decrease the total amount of carbidopa in blood”. The “Steady state of plasma concentrations of LD” value in data set [5] (24 hours after LD/CD infusion initiation, 9 hours after entacapone dosing initiation) was “did not reach a steady state”. For the same molecule, in data set [5] (human, in vivo), the “Plasma concentrations of 3-OMD” value is recorded as “significantly reduced”. For the same molecule, in data set [5] (male, human, in vivo), the “Blood level of levodopa” value was “about 620 ng/ml” and the “Increase of the blood level of levodopa” value is listed as “more than 40%”.

As to `O=C1O[C@H]([C@@H](O)CO)C(O)=C1O` [ascorbic acid], the “Reduction of the pH as compared to Na-ascorbate” value in data set [6] was 0.1-0.15 units.
